# Source: US20160370353A1, “METHOD FOR DISTINGUISHING SECRETORY GRANULES OF DIFFERENT AGES” (TECHNISCHE UNIVERSITÄT DRESDEN MEDIZINISCHE FAKULTÄT CARL …, priority 2008, published 2016)
# System: SNAP-tag (hINS-SNAP) in INS-1 cells
# Experiment: Dual-color labeling (TMR-Star, BTP block, BG505) of living INS-1 cells expressing hINS-SNAP; co-localization analysis
# Format: cell-based, rat
# Experimental: The first labeling was carried out for 15 min with 2 μM TMR (red) in normal media (I ml per well), followed by 2×PBS wash and 30 min, incubation in media without the SNAP substrate. The labeling with 10 μM BTP lasted 20 min. followed by two washings with PBS and 30 min incubation in media without BTP. The period between the BTP administration and the BG505 (green) administration was 4 hour long, so that any unbound BTP had sufficient time to be cleared out of the cells, thus allowing the labeling of newly synthesized hlns-SNAP. During this period […] additional washings were performed: two times with PBS and two times with media.
# Cells were then incubated with 10 μM BG505 for 30 min, followed by two washings with PBS, 30 min incubation in media and another PBS washing. After the last washing, the cells were fixed (4% PFA, pH: 7.4 for 10 min at 4° C.) and embedded (ProLong Gold antifade reagent with DAPI, P36931, Molecular Probes). […]
# Software analysis of the acquired images allowed the generation of images representing the co-localized pixels from both channels and also the characteristic scattered plots. […] The calculated Pearson's coefficients (10 μM BTP: 0.515; 0 μM BTP: 0.829) calculated according to Bolte et al., are in agreement with this interpretation.
# Sequence of SNAP-tag (hINS-SNAP) in INS-1 cells (P16455 1-182 C62A/K125A/A127T/R128A/G131K/G132T/M134L/R135S/C150S/N157G/S159E limits assumed): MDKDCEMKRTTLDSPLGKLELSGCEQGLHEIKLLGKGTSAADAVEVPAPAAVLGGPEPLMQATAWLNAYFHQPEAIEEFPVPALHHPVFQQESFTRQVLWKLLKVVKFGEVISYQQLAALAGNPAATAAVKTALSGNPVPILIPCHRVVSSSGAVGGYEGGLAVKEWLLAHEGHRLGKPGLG
substance,measurement,setting,value
bromothenylpteridine [BTP],Pearson's coefficient (co-localization of TMR and BG505 pixels),"INS-1 cells exposed sequentially to TMR, 10 μM BTP and BG505, control without blocker (0 μM BTP): 0.829",0.515
same,Co-localized pixels (white) of red and green channels,"blocking step with BTP interposed between sequential labelings with TMR-Star and BG505, many co-localized pixels when BTP omitted",No co-localization
